Experimental findings from US11090304B2 (Amgen Inc., priority 2018, dated 2021) are described below.

Read-outs that look alike come from different tables or passages of the source. A value given as a limit tells only on which side of the number the result lay.

For test [1], the system named is Phosphorylation of ERK1/2 in A549 cells. Briefly: Phospho-ERK1/2 MSD assay in A549 cells. Type of test: cell-based. The conditions noted are these: Homo sapiens. How it is done: For compounds in Table 89, the following assay conditions were employed:
Phospho-ERK1/2 MSD Assay:
Sixteen hours prior to compound treatment, MIA PaCa-2 or A549 cells were seeded in 96-well cell culture plates at a density of 25,000 cells/well and incubated at 37° C., 5% CO2. A compound dose-response titration was diluted in growth media, added to appropriate wells of a cell culture plate, and then incubated at 37° C., 5% CO2 for 2 or 4 hours (see Table 15). Following compound treatment, cells were stimulated with 10 ng/mL EGF (Roche 11376454001) for 10 min, washed with ice-cold Dulbecco's phosphate-buffered saline, no Ca^2+ or Mg^2+ (ThermoFisher Scientific 14190144), and then lysed in RIPA buffer (50 mM Tris-HCl pH 7.5, 1% Igepal, 0.5% sodium deoxycholate, 150 mM NaCl, and 0.5% sodium dodecyl sulfate) containing protease inhibitors (Roche 4693132001) and phosphatase inhibitors (Roche 4906837001). Phosphorylation of ERK1/2 in compound-treated lysates was assayed using Phospho-ERK1/2 Whole Cell Lysate kits (Meso Scale Discovery K151DWD) according to the manufacturer's protocol. Assay plates were read on a Meso Scale Discovery Sector Imager 6000, and data were analyzed using a 4-parameter logistic model to calculate IC50 values.

In test [2] the target is GDP-bound KRAS protein (aa 1-169), containing both G12C and C118A amino acid substitutions (Homo sapiens, UniProt P01116, C118A/G12C). Briefly: Coupled nucleotide exchange assay (SOS-mediated, AlphaScreen). Type of test: biochemical. The conditions noted are these: for Coupled exchange IC50 (5 min): 5 min compound pre-incubation.
Test [3] relates to Phosphorylation of ERK1/2 in MIA PaCa-2 cells. Briefly: Phospho-ERK1/2 MSD assay in MIA PaCa-2 cells. Type of test: cell-based. Summed up: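 Following a 2 or 4 h incubation with titrated compound, cells receive a 10 min pulse of 10 ng/mL EGF. Phospho-ERK1/2 in RIPA lysates is then quantified by MSD immunoassay, and IC50 values come from a four-parameter logistic model.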
Setting [4] is: A549, 2 h, read-out: p-ERK IC50 (2 h; A549), 2 h compound treatment.
The mark [5] stands for this setting: A549, 4 h, read-out: p-ERK IC50 (4 h; A549), 4 h compound treatment.
Where [6] appears, read: Homo sapiens, MIA PaCa-2, 2 h, read-out: p-ERK IC50 (2 h; MIA PaCa-2), 2 h compound treatment.
Setting [7] is: Homo sapiens, MIA PaCa-2, 4 h, read-out: p-ERK IC50 (4 h; MIA PaCa-2), 4 h compound treatment.

GDP-bound KRAS protein (aa 1-169), containing both G12C and C118A amino acid substitutions, sequence (P01116 1-169 isoform P01116-2 G12C/C118A): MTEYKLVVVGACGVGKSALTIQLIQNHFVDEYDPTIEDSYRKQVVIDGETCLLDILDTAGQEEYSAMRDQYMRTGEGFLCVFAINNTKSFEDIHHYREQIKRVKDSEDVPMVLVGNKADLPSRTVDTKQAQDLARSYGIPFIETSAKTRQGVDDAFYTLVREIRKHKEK

One may read the IC50 as the concentration that inhibits the measured activity by half. Take `C=CC(=O)N1CCN(c2nc(=O)n(-c3ccccc3C(C)C)c3cc(Br)c(Cl)cc23)[C@@H](C)C1` (single isomer, unassigned) [Example 9-17-2]: the IC50 in test [1] (setting [4]) is at least 10 µM; in test [1] (setting [5]) it was at least 100 µM; in test [3] (setting [6]), 1.06 µM; in test [3] (read-out: p-ERK IC50 (4 h; MIA PaCa-2), 4 h compound treatment) it was 0.859 µM. In addition, the “Coupled exchange IC50 (5 min)” value in test [2] was 1.66 µM. Further, the “Coupled exchange IC50 (2 h)” value in test [2] (2 h compound pre-incubation) was 0.163 µM.

As to `C=CC(=O)N1CCN(c2nc(=O)n(-c3cccnc3C(C)C)c3nc(-c4ccccc4F)c(Cl)cc23)[C@@H](C)C1` (single isomer, unassigned) [Example 54-9-1], the IC50 in test [1] (setting [4]) was at least 10 µM; in test [3] (read-out: p-ERK IC50 (2 h; MIA PaCa-2), 2 h compound treatment), 0.076 µM. For the same compound, the “Coupled exchange IC50 (5 min)” value in test [2] is given as 0.302 | nda μM.

For the compound `C=CC(=O)N1CCN(c2nc(=O)n(-c3c(C)ncnc3C(C)C)c3nc(-c4ccccc4F)c(Cl)cc23)[C@@H](C)C1` (single isomer, unassigned) [Example 55-13-2], the IC50 in test [1] (setting [4]) was at least 10 µM; in test [3] (setting [6]), 0.055 µM. The “Coupled exchange IC50 (5 min)” value in test [2] is recorded as 0.02 | nda μM.

As to `C=CC(=O)N1CCN(c2nc(=O)n(-c3ccccc3C(C)C)c3c(C)c(-c4c(O)cccc4F)c(Cl)cc23)[C@@H](C)C1` (single isomer, unassigned) [Example 90-1], the concentration for half-maximal inhibition (IC50) is at least 33.3 µM in test [1] (setting [5]) and 0.221 µM in test [3] (setting [7]).

Consider `C=CC(=O)N1CCN(c2nc(=O)n(-c3ccccc3C(C)C)c3cc(Br)c(Cl)cc23)[C@@H](C)C1` [Example 9-17], for which the values for the IC50 in test [1] (setting [5]) and in test [3] (setting [7]) were 74.4 µM and 1.11 µM, respectively.

In the case of `C=CC(=O)N1CCN(c2nc(=O)n(C(CC)CC)c3nc(-c4ccccc4F)c(Cl)cc23)[C@@H](C)C1` [Example 54-2, 6-chloro-7-(2-fluorophenyl)-4-((2S)-2-methyl-4-(2-propenoyl)-1-piperazinyl)-1-(3-pentanyl) pyrido[2,3-d]pyrimidin-2(1H)-one], the IC50 in test [1] (setting [4]) was at least 100 µM; in test [1] (setting [5]), at least 100 µM; in test [3] (setting [6]), 66.6 µM; in test [3] (setting [7]), 55.6 µM.

Turning to `C=CC(=O)N1CCN(c2nc(=O)n(-c3c(CC)cccc3CC)c3nc(C4CCCC4)c(Cl)cc23)[C@@H](C)C1` [Example 54-4, 6~chloro-7-cyclopentyl-1-(2,6-diethylphenyl)-4-((2S)-2-methyl-4-(2-propenoyl)-1-piperazinyl) pyrido[2,3-d]pyrimidin-2(1H)-one], the half-maximal inhibitory concentration (IC50) came out at 48.9 µM in test [1] (setting [4]) and 2.25 µM in test [3] (setting [6]).

Take `C=CC(=O)N1CCN(c2nc(=O)n(-c3c(CC)cccc3CC)c3nc(-c4c(C)ccc5[nH]ncc45)c(Cl)cc23)[C@@H](C)C1` [Example 54-66, 6-chloro-1-(2,6-diethylphenyl)-7-(5-methyl-1H-indazol-4-yl)-4-((2S)-2-methyl-4-(2-propenoyl)-1-piperazinyl) pyrido[2,3-d]pyrimidin-2(1H)-one]: the concentration for half-maximal inhibition (IC50) in test [1] (setting [4]) was at least 10 µM; in test [1] (setting [5]), at least 100 µM; in test [3] (setting [6]) it was 0.1 µM; in test [3] (setting [7]) it was 0.122 µM.

Take `C=CC(=O)N1CCN(c2nc(=O)n([C@@H]3CCc4ccccc43)c3nc(-c4ccccc4F)c(Cl)cc23)[C@@H](C)C1` [Example 54-67, 6-chloro-1-((1R)-2,3-dihydro-1H-inden-1-yl)-7-(2-fluorophenyl)-4-((2S)-2-methyl-4-(2-propenoyl)-1-piperazinyl) pyrido[2,3-d]pyrimidin-2(1H)-one]: the half-maximal inhibitory concentration (IC50) in test [1] (setting [4]) and in test [3] (setting [6]) was at least 10 µM in each case.

As to `C=CC(=O)N1CCN(c2nc(=O)n(-c3ccccc3C(C)C)c3nc(Cl)c(Cl)cc23)CC1` [Example 54-80, 6,7-dichloro-1-(2-(2-propanyl)phenyl)-4-(4-(2-propenoyl)-1-piperazinyl) pyrido[2,3-d]pyrimidin-2(1H)-one], the half-maximal inhibitory concentration (IC50) was at least 100 µM in test [1] (setting [5]) and 5.64 µM in test [3] (setting [7]).

Consider `C=CC(=O)N1CCN(c2nc(=O)n(-c3ccccc3C(C)C)c3nc(-c4ccccc4Cl)c(Cl)cc23)[C@@H](C)C1` [Example 54-84, 6-chloro-7-(2-chlorophenyl)-4-((2S)-2-methyl-4-(2-propenoyl)-1-piperazinyl)-1-(2-(2-propanyl)phenyl)pyrido [2,3-d]pyrimidin-2(1H)-one], for which the IC50 in test [1] (setting [4]) was at least 100 µM; in test [1] (setting [5]) it was at least 100 µM; in test [3] (setting [6]) it was 0.054 µM; in test [3] (setting [7]), 0.084 µM.

With `C=CC(=O)N1CCN(c2nc(=O)n(-c3ccccc3C(C)C)c3nc(-c4ccc(F)cc4F)c(Cl)cc23)[C@@H](C)C1` [Example 54-85, 6-chloro-7-(2,4-difluorophenyl)-4-((2S)-2-methyl-4-(2-propenoyl)-1-piperazinyl)-1-(2-(2-propanyl)phenyl)pyrido [2,3-d]pyrimidin-2(1H)-one], the figures for the IC50 in test [1] (setting [4]) and in test [3] (setting [6]) were at least 100 µM and 0.16 µM, respectively.

For the compound `C=CC(=O)N1CCN(c2nc(=O)n(-c3ccccc3C(C)C)c3nc(-c4ccccc4F)c(Cl)cc23)[C@@H](C)C1` [Example 54-86, 6-chloro-7-(2-fluorophenyl)-4-((2S)-2-methyl-4-(2-propenoyl)-1-piperazinyl)-1-(2-(2-propanyl)phenyl)pyrido [2,3-d]pyrimidin-2(1H)-one], the half-maximal inhibitory concentration (IC50) in test [1] (setting [4]) is at least 33.3 µM; in test [3] (setting [6]), 0.09 µM.

For the compound `C=CC(=O)N1CCN(c2nc(=O)n(-c3ccccc3C(C)C)c3nc(Oc4cccc(F)c4)c(Cl)cc23)CC1` [Example 60-23, 6-chloro-7-(3-fluorophenoxy)-1-(2-(2-propanyl)phenyl)-4-(4-(2-propenoyl)-1-piperazinyl)pyrido[2,3-d]pyrimidin-2(1H)-one], the values for the IC50 in test [1] (setting [5]) and in test [3] (setting [7]) were 37.9 µM and 4.49 µM, respectively.

For the compound `C=CC(=O)N1CCN(c2nc(=O)n(C(C(C)C)C(C)C)c3nc(Cl)c(Cl)cc23)CC1` [Example 60-35, 6,7-dichloro-1-(2,4-dimethyl-3-pentanyl)-4-(4-(2-propenoyl)-1-piperazinyl)pyrido[2,3-d]pyrimidin-2(1H)-one], the IC50 in test [1] (setting [5]) worked out at 46.2 µM; in test [3] (setting [7]), 10.7 µM.

For `C=CC(=O)N1CCN(c2nc(=O)n(-c3ccccc3C(C)C)c3cc(-c4ccccc4F)c(Cl)cc23)[C@@H](C)C1` [Example 62-1, (S)-4-(4-acryloyl-2-methylpiperazin-1-yl)-6-chloro-7-(2-fluorophenyl)-1-(2-isopropylphenyl)quinazolin-2(1H)-one], the IC50 in test [1] (setting [4]) is at least 100 µM; in test [3] (setting [6]), 0.116 µM.

As for `C=CC(=O)N1CCN(c2nc(=O)n(-c3ccccc3C(C)C)c3nc(N4CCCCC4)c(Cl)cc23)[C@@H](C)C1` [Example 69-1, 6-Chloro-4-((2S)-2-methyl-4-(2-propenoyl)-1-piperazinyl)-7-(1-piperidinyl)-1-(2-(2-propanyl)phenyl)pyrido[2,3-d]pyrimidin-2(1H)-one], the IC50 was determined as 64.8 µM in test [1] (setting [5]) and 1.86 µM in test [3] (setting [7]).

Turning to `C=CC(=O)N1CCN(c2nc(=O)n(-c3ccccc3C(C)C)c3cc(-c4ccccc4F)c(Cl)cc23)CC1` [Example 88, 6-Chloro-7-(2-fluorophenyl)-1-(2-(2-propanyl)phenyl)-4-(4-(2-propenoyl)-1-piperazinyl)-2(1H)-quinazolinone], the values for the half-inhibitory concentration (IC50) in test [1] (setting [5]), in test [3] (setting [6]) and in test [3] (setting [7]) were 89.4 µM, 0.232 µM and 0.243 µM, respectively.

Consider `C=CC(=O)N1CCN(c2nc(=O)n(CC(C)(C)C)c3cc(-c4c(O)cccc4F)c(Cl)cc23)CC1` [Example 89, 6-Chloro-1-(2,2-dimethylpropyl)-7-(2-fluoro-6-hydroxyphenyl)-4-(4-(2-propenoyl)-1-piperazinyl)-2(1H)-quinazolinone], for which the IC50 in test [1] (setting [4]) was at least 10 µM; in test [1] (setting [5]), at least 11.1 µM; in test [3] (setting [6]), 0.687 µM; in test [3] (setting [7]) it was 0.294 µM.
